Experimental data published in US5444049A, “Peptide compounds derived from boronic acid” (Adir et Compagnie, priority 1993, dated 1995).
Read-outs that look alike come from different tables or passages of the source.

What was measured:
[1] = tested on: thrombin time of rat platelet-poor plasma; assay: Anticoagulant activity: thrombin time in rat plasma; assay type: biochemical; details: for Rat CTT2 (concentration which multiplies the thrombin time by 2): rat plasma, 2 minutes at 37° C.
Experimental: (§1) In the presence of a standard quantity of thrombin, a normal plasma coagulates in a defined and constant time, termed the thrombin time (TT). Any prolongation of this time reflects an abnormality of fibrin formation (coagulation).
(§2) Sprague-Dawley rats are anesthetized with pentobarbital sodium (60 mg/kg i.p.), the carotid artery is catheterized and blood samples are taken into trisodium citrate solution (0.109M). A platelet-poor plasma is obtained by centrifugation of the blood samples (3000 g, 15 minutes). Samples of venous blood are also taken from humans at the bend of the arm. Anticoagulation of the samples and preparation of platelet-poor plasma are identical to those carried out with rat blood.
(§3) The thrombin time is obtained with Prest thrombin reagent and determined automatically using a coagulometer.
(§4) The antagonist or the solvent (10 μl) is added to the plasma (90 μl) and then incubated for 2 minutes at 37° C. 100 µl of thrombin are added as the chronometer is started.
(§5) Under these conditions, the TT values obtained in the control plasma are of the order of 30 seconds in rats and 20 seconds in humans. The activity of an antagonist is evaluated by its capacity to prolong this thrombin time relative to the control.
(§6) Under these conditions, the compounds of the invention permit a prolongation of the thrombin time of 50-fold and more. The effect of the inhibitors is measured, and the concentration which multiplies the thrombin time by 2 (CTT2) is determined.

[2] = tested on: thrombin time of human platelet-poor plasma; assay: Anticoagulant activity: thrombin time in human plasma; assay type: biochemical; details: for Man CTT2 (concentration which multiplies the thrombin time by 2): human plasma, 2 minutes at 37° C.
Experimental: as §1, §2, §3, §4, §5, §6

OFA rats [3] = assay: Anticoagulant activity ex vivo, oral administration (conscious rats), thrombin time; assay type: in vivo, rat; details: 10 mg/kg orally
Experimental: Fasted OFA rats are anesthetized with ether. The cordal artery is exposed and catheterized. The catheter is flushed with citrated (1/40) physiological solution. After installation of the catheter, the animal is placed in a restraining cage and 1.5 cm^3 of arterial blood are withdrawn into 0.109M citrate (1/9).
1 hour after the animal has awoken, the test products are administered orally at a single dose of 10 mg/kg.
Arterial blood samples (1.5 ml) are then withdrawn at 30 minutes, 60 minutes and 2 hours.
As each sample is withdrawn, 1.5 ml of physio-logical solution are reinjected into the animals.
The blood tubes are centrifuged for 15 minutes at 3000 g for preparation of the plasma. The time of onset of the coagulation phenomenon is measured after adding Prest thrombin.
The results are reproduced in the following table, and show the factors by which the thrombin time is increased.

OFA rats [4] = assay: Anticoagulant activity ex vivo, intravenous administration, activated cephalin time; assay type: in vivo, rat; details: 0.5 mg/kg i.v.
Experimental: OFA rats, fasted or otherwise, are anesthetized with pentobarbital (60 mg/kg i.p.). The carotid artery and the jugular vein are exposed and catheterized. The catheters are flushed with citrated (1/40) physiological solution. After installation of the catheters, a sample of 1.5 cm^3 of arterial blood is withdrawn into 0.109M citrate (1/9).
30 minutes later, the test product is administered i.v. in a volume of 1 ml.
Arterial blood samples (1.5 ml) are then withdrawn at 1 minute 30 sec and 5, 15, 30 and 60 minutes.
As each sample is withdrawn, 1.5 ml of citrated physiological solution are reinjected into the animal via the carotid.
The blood tubes are centrifuged for 15 minutes at 3000 g (preparation of plasma). 100 μl of plasma are incubated with 100 gl of activated cephalin. The time of onset of the coagulation phenomenon is measured after adding 100 μl of calcium.
The compounds of the invention, tested at a dose of 0.5 mg/kg, increase the activated cephalin time (ACT) in a dose-dependent manner. […] The increase in ACT noted with the compounds of the invention is still significant 60 minutes after their administration. The results are reproduced in the following table, and show the factors by which the coagulation time is increased.

OFA rats [5] = assay: as above; assay type: in vivo, rat; details: 0.5 mg/kg i.v., 15.5 min
human thrombin = target: T1, human thrombin (Homo sapiens, UniProt P00734); assay: Inhibition of human thrombin (fibrinogen or S2238 substrate); assay type: biochemical; details: for IC50: 20° C.
T1 construct: human thrombin (Sigma, specific activity 3230 NIHU/mg); purchased Sigma
Experimental: To evaluate in vitro the inhibitory activity of the boro-arginine products with respect to human thrombin (Sigma, specific activity 3230 NIHU/mg), purified human fibrinogen ([…], Stago) (Fg) or the chromogenic substrate H-D-Phe-Pip-Arg-pNa ([…], S2238, Kabi) was added to a given quantity of thrombin (0.7 or 2 nM) incubated beforehand with or without the inhibitor under test (20° C., 10 minutes).
(§7) Inhibitors, enzymes and substrates are diluted in the same buffer ([…] buffer, pH 7.4, containing 0.12M sodium chloride and 0.05% of bovine serum albumin), and then distributed in a polystyrene microplate in a volume of […].
(§8) The fibrin formed by thrombin or by the para-nitroaniline liberated by the action of the serine protease is measured spectrophotometrically at 405 nm after 15 to 30 minutes of reaction at 20° C.

purified human plasmin = target: T2, purified human plasmin (Homo sapiens, UniProt P00747); assay: Inhibition of plasmin; assay type: biochemical; details: substrate S 2403
T2 construct: purified human plasmin (2 nM, Stago); purchased Stago
Experimental: (§9) To evaluate in vitro the selectivity of these products with respect to different serine proteases of fibrinolysis and of coagulation, the same protocol was applied to purified human plasmin (2 nM, Stago), to purified human activated protein C (2 nM, Stago), to purified human activated factor X (2 nM, Stago), to tissue plasminogen activator (2 nM, Calbiochem), to purified human urokinase (2 nM, Sigma) and to purified human plasma kallikrein (2 nM, Calbiochem), using different peptidyl para-nitroanilides as substrate: <Glu-Phe-Lys-pNA (0.50 mM, S 2403, Kabi) for plasmin, N-Cbo-Arg-Gly-Arg-pNA (0.38 mM, S 2765, Kabi) for factor Xa, <Glu-Pro-Arg-pNa (0.52 mM, S 2366, Kabi) for activated protein C, H-D-Pro-Phe-Arg-pNa (0.45 mM, S 2302, Kabi) for kallikrein, H-D-Ile-Pro-Arg-pNA (0.48 mM, S 2288, Kabi), <Glu-Gly-Arg-pNA (0.56 mM, S 2444, Kabi).
as §7, §8

[6] = target: T3, tissue plasminogen activator (Homo sapiens, UniProt P00750); assay: Inhibition of tissue plasminogen activator; assay type: biochemical; details: peptidyl para-nitroanilide substrate
T3 construct: purchased Calbiochem
Experimental: as §9, §7, §8

purified human urokinase = target: T4, purified human urokinase (Homo sapiens, UniProt P00749); assay: Inhibition of urokinase; assay type: biochemical; details: peptidyl para-nitroanilide substrate
T4 construct: purchased Sigma
Experimental: as §9, §7, §8

[7] = target: T5, purified human activated factor X (Homo sapiens, UniProt P00742); assay: Inhibition of activated factor X; assay type: biochemical; details: substrate S 2765
T5 construct: purchased Stago
Experimental: as §9, §7, §8

[8] = target: T6, purified human plasma kallikrein (Homo sapiens, UniProt P03952); assay: Inhibition of plasma kallikrein; assay type: biochemical; details: substrate S 2302; read-out: IC50 Kalli
T6 construct: to purified human plasma kallikrein (2 nM, Calbiochem); purchased Calbiochem
Experimental: as §9, §7, §8

[9] = target: T7, purified human activated protein C (Homo sapiens, UniProt P04070); assay: Inhibition of activated protein C; assay type: biochemical; details: substrate S 2366
T7 construct: purchased Stago
Experimental: as §9, §7, §8

dogs [10] = assay: Anticoagulant activity p.o. in dogs, thrombin time; assay type: in vivo, dog; details: 5 mg/kg orally
Experimental: (§10) The products were administered orally to dogs.2 hours and 4 hours after the treatment, and blood was withdrawn via the intravenous route. The plasma is prepared, platelets counted and the thrombin time test is carried out.

dogs [11] = assay: Thrombopenia p.o. in dogs, platelet count; assay type: in vivo, dog; details: 5 mg/kg orally
Experimental: as §10

T2 sequence (P00747 581-810 limits assumed): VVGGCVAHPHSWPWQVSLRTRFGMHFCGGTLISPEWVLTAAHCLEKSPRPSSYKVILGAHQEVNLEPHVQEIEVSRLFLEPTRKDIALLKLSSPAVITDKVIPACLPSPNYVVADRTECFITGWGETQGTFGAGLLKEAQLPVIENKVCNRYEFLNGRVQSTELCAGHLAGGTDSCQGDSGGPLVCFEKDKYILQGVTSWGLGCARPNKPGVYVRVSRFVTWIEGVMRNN
T2 sequence (P00747 97-580 limits assumed): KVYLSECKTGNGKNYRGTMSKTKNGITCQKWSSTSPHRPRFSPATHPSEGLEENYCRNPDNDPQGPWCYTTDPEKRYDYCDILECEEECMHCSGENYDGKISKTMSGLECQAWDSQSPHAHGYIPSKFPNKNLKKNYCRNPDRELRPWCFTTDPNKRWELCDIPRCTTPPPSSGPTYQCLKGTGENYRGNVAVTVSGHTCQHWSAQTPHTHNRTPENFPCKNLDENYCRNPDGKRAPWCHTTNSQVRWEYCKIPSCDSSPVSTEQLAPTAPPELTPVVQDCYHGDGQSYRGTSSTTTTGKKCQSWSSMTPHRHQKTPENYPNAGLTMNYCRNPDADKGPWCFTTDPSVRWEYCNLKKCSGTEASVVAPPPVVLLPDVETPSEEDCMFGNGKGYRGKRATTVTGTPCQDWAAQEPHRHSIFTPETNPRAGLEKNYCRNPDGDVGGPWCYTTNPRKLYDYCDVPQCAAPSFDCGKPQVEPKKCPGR
T3 sequence (P00750 36-562): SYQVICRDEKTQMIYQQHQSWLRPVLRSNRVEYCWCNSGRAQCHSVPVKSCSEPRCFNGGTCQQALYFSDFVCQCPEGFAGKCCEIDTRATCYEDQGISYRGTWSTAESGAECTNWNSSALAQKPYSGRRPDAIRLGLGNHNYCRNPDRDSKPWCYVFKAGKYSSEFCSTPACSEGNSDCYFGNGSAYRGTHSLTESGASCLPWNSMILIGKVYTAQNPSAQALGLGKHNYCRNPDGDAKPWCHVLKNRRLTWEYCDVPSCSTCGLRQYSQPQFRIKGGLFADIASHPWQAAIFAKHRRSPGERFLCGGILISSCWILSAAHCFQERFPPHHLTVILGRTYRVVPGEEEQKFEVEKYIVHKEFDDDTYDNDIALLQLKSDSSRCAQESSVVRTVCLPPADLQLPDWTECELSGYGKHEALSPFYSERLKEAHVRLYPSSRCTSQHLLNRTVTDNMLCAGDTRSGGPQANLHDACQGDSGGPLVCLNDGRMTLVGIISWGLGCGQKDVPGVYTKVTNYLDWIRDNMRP
T5 sequence (P00742 235-488 limits assumed): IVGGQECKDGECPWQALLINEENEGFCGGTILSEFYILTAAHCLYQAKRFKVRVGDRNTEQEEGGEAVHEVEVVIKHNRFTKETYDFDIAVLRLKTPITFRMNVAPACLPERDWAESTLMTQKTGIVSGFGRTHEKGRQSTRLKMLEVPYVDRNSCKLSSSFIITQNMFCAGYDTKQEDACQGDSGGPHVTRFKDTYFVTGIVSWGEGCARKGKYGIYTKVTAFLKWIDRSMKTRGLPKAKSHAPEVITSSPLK
T5 sequence (P00742 41-179 limits assumed): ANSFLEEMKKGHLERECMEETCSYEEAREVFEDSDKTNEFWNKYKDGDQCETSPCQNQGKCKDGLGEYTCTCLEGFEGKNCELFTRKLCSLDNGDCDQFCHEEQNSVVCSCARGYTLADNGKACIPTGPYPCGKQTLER
T6 sequence (P03952 391-638 limits assumed): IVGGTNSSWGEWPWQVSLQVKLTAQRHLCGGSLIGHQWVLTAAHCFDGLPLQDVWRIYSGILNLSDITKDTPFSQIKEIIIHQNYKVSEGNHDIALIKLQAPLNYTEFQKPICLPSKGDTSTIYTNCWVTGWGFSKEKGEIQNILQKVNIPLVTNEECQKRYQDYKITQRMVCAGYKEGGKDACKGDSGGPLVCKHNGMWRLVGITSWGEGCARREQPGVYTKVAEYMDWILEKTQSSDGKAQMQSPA
T6 sequence (P03952 20-390 limits assumed): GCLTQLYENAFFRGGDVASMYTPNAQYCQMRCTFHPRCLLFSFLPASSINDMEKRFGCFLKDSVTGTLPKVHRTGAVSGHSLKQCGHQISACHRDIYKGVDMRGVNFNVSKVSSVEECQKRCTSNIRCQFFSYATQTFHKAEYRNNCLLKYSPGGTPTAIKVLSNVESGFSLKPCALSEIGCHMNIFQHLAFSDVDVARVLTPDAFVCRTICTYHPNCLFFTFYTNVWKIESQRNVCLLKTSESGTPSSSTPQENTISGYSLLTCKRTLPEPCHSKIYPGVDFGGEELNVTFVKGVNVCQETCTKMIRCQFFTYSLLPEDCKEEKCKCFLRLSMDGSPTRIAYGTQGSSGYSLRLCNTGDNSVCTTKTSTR
T7 sequence (P04070 212-461 limits assumed): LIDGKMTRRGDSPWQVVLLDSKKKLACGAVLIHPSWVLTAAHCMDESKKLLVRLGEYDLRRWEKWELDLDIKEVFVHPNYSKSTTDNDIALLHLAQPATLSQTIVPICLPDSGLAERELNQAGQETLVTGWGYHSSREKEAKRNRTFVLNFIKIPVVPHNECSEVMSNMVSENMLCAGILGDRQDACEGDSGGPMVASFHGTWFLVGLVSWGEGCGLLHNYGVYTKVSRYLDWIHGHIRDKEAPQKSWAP
T7 sequence (P04070 43-197 limits assumed): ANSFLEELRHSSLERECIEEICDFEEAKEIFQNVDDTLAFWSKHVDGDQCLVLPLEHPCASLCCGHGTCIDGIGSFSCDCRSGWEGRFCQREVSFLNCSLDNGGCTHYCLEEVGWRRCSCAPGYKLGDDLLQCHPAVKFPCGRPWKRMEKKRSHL

## CC(=O)NC(Cc1ccccc1)C(=O)N1C(C(=O)NC(CCCNC(=N)N)B(O)O)CC2CCCCC21.CC(=O)O (mixture of isomers) [Ex. 3, 1-(R)-[(Ac-(RS)Phe-Phi)amino]-4-guanidinobutylboronic acid acetate]
[1]
  Rat CTT2 (concentration which multiplies the thrombin time by 2): 0.23 µM
[2]
  Man CTT2 (concentration which multiplies the thrombin time by 2): 0.07 µM
[2]; humans
  factor by which concentration for doubling the thrombin time is less than DUP 714: 2.5
OFA rats [3]; 0.5 hours
  factor by which the thrombin time is increased: 7.7
OFA rats [3]; 1 hour
  factor by which the thrombin time is increased: 7.1
OFA rats [3]; 2 hours
  factor by which the thrombin time is increased: 5.6
OFA rats [4]; 5 min
  factor by which the coagulation time (ACT) is increased: 4.7
OFA rats [4]; 15 min
  factor by which the coagulation time (ACT) is increased: 3.6
OFA rats [4]; 30 min
  factor by which the coagulation time (ACT) is increased: 2.6
OFA rats [4]; 60 min
  factor by which the coagulation time (ACT) is increased: 2.0
OFA rats [5]
  factor by which the coagulation time (ACT) is increased: 7.3

## CC(=O)NC(Cc1ccccc1)C(=O)N1C2CCC(CC2)C1C(=O)NC(CCCNC(=N)N)B(O)O.CC(=O)O (mixture of isomers) [Ex. 23, 1-(R)-[(Ac-(RS)Phe-Abo)amino]-4-guanidinobutylboronic acid acetate]
[1]
  Rat CTT2 (concentration which multiplies the thrombin time by 2): 0.17 µM
[1]; rats
  concentration for doubling the thrombin time relative to DUP 714: one half
[2]
  Man CTT2 (concentration which multiplies the thrombin time by 2): 0.11 µM

## CC(=O)NC(Cc1ccccc1)C(=O)N(CC(=O)N[C@@H](CCCNC(=N)N)B(O)O)C1CCCC1.CC(=O)O (mixture of isomers) [Ex. 27, 1-(R)-{[Ac-(RS)Phe-(N-cyclopentyl)Gly]amino}-4-guanidinobutylboronic acid acetate]
[2]
  Man CTT2 (concentration which multiplies the thrombin time by 2): 0.20 µM
Human thrombin; chromogenic substrate S2238, read-out: IC50 Thrombin S2238
  IC50: 2.5 nM
Human thrombin; substrate purified human fibrinogen, read-out: IC50 Thrombin Fg
  IC50: 0.79 nM
Human thrombin; thrombin versus other serine proteases
  selectivity with respect to the serine proteases of coagulation and of fibrinolysis compared with DUP 714: greater selectivity
Purified human plasmin
  IC50: 735 nM
[6]
  IC50: 38 nM
Purified human urokinase
  IC50: 3180 nM
[7]
  IC50: 1760 nM
[8]
  IC50: 104 nM
[9]
  IC50: 149 nM
OFA rats [4]; 5 min
  factor by which the coagulation time (ACT) is increased: 2.3
OFA rats [4]; 15 min
  factor by which the coagulation time (ACT) is increased: 1.7
OFA rats [4]; 30 min
  factor by which the coagulation time (ACT) is increased: 1.5
OFA rats [4]; 60 min
  factor by which the coagulation time (ACT) is increased: 1.3
Dogs [10]; 2 hr
  Increase factor TT: 11
Dogs [10]; 4 hr
  Increase factor TT: 3
Dogs [11]; 2 hr
  Change in platelet count (% of control): -4%
Dogs [11]; 4 hr
  Change in platelet count (% of control): -1%
OFA rats [5]
  factor by which the coagulation time (ACT) is increased: 5
